The values that follow come from patent US20240247029A1, “INTERLEUKIN-1 RECEPTOR MODULATORS AND USES THEREOF” (VALORISATION HSJ, LIMITED PARTNERSHIP, priority 2020, published 2024).

The subject of assay [1] is IL-1β-induced NF-κB signaling in HEK-Blue IL-33/IL-1β cells. Put plainly: NF-κB QUANTI-Blue assay. The conditions noted are these: Kineret 1.0 mg/mL, 30 min pretreatment, IL-1β 100 ng/ml. It is filed as cell-based. The protocol:
FIG. 3 is a graph showing the effects of peptides 1 and 2 on IL-1β-induced NF-κB signaling in HEK-Blue cells as quantified in the QUANTI-blue assay. After pre-incubation with peptide or vehicle, HEK-Blue cells were stimulated with IL-1β for 24 h, and secreted alkaline phosphatase activity was spectroscopically detected as a reporter product from the transcription of the NF-κB gene. Data shown represents the average of 2 experiments (each with n=4 per treatment group): ****p<0.0001 compared to group treated only with IL-1β.
HEK-Blue IL-33/IL-1β cells (InvivoGen) were respectively pretreated with peptides 1 and 2 (10^−6 M), or Kineret (1.0 mg/mL) for 30 min, followed by treatment with a constant concentration of […] (100 ng/ml), and incubation at 37° C. for 4 h. Levels of secreted alkaline phosphatase in cell culture supernatant were determined using the QUANTI-Blue assay, according to the manufacturer's instructions (InvivoGen). Alkaline phosphatase activity was assessed by measuring the optical density (OD) at 620-655 nm with an EnVision Multilabel micro plate reader (PerkinElmer, Waltham, MA). Data are representative of 3 experiments (each with n=4 per treatment group).

The subject of another assay is IL-1β gene expression. Put plainly: qPCR of IL-1β gene expression in RAW 264.7 macrophages. It counts as cell-based. The conditions noted are these: peptide 10^−6 M, 30 min pre-incubation, IL-1β stimulation, RAW 264.7 mouse macrophages. As for the experimental part:
(§1) FIGS. 4A and 4B are graphs showing the results of qPCR analysis of IL-1β (FIG. 4A) and COX-2 (FIG. 4B) gene expression within lysates from RAW 264.7 mouse macrophage cells after exposure to peptides 1 and 2 (10^-6 M) or Kineret (1 mg/mL) followed by […] incubation overnight. Results represent an average of 3 independent experiments (each with n=4 per treatment group) and are expressed as a fold-change of the non-stimulated control: *p<0.05, **p<0.01 compared to group treated only with IL-1β, and 18S rRNA as internal control. Treatment groups that are not labeled with asterisks are statistically non-significant compared to group treated only with IL-1β.;
(§2) RAW Blue cells were purchased from InvivoGen® (San Diego, CA), used at passages under 15, and cultured in DMEM growth medium supplemented with 10% serum, 50 U/mL penicillin and […] zeocin. Cells were grown in regular conditions (37° C., 5% CO2), serum starved overnight, and treated with 100 ng/ML IL-1β for 4 h. Cells were respectively pre-incubated for 30 min with peptides 1 and 2 (10^−6 M) or Kineret® (1.0 mg/mL) to reach equilibrium prior to the experiments (n=4 each treatment). Cells were harvested and incubated for 5 min in RIBOzol® (AMRESCO). RNA was extracted according to manufacturer's protocol and RNA concentration and integrity were measured with a NanoDrop® 1,000 spectrophotometer. A total of 500 ng of RNA was used to synthesize cDNA using iScript Reverse Transcription SuperMix® (Bio-Rad, Hercules, CA). Primers (Table 1) were designed using National Center for Biotechnology Information Primer Blast. Quantitative gene expression analysis was performed on Stratagene® MXPro3000 (Stratagene) with SYBR Green Master Mix (Bio-Rad). Gene expression levels were normalized to 18S universal primer (Ambion Life Technology, Burlington ON, Canada). Genes analyzed include […] and PTGHS2 [Prostaglandin H synthetase 2 or cyclooxygenase-2 (COX-2)]. Data are representative of 3 experiments (each with n=4 per treatment group).

Assay [2] has as its system COX-2 (PTGHS2) gene expression. Put plainly: qPCR of COX-2 gene expression in RAW 264.7 macrophages. It counts as cell-based. The conditions noted are these: peptide 10^−6 M, 30 min pre-incubation, IL-1β stimulation, RAW 264.7 mouse macrophages. As for the experimental part: as §1, §2
On the technique in general: In qPCR the cycle at which signal appears reflects the starting amount.

A further assay relates to Sprague Dawley rat pups. Put plainly: Oxygen-induced retinopathy (OIR) model. It counts as in vivo. The conditions noted are these: 2 mg/kg/day intraperitoneal twice daily, 80% oxygen P5 to P10; for extent of vaso-obliteration (percentage of total retinal area): vehicle ˜30%. From the text:
Experiments in the oxygen-induced retinopathy rodent model were preformed according to the method described previously (Geranurimi et al. 2019), and summarized below.
Animals. Two-day-old (P2) Sprague Dawley rat pups and their mothers were ordered from Charles River (Raleigh, SC, USA) and acclimatized for 3 days in standard conditions. All procedures and protocols involving the use of the rats were approved by the Animal Care Committee of the research center of Hopital Maisonneuve-Rosemont and are in accordance with the Statement for the Use of Animals in Ophthalmic and Vision Research approved by the Association for Research in Vision and Ophthalmology, and guidelines established by the Canadian Council on Animal Care.
Oxygen-Induced Retinopathy in Sprague Dawley Rats. The 80% oxygen model of retinopathy was conducted as previously described (Geranurimi et al. 2019). Briefly, litters of P5 pups and their mothers were kept in a controlled 80% oxygen environment until P10. The pups were respectively injected intraperitoneally twice daily with PBS vehicle (20 μL per injection), peptide 1 or derivatives 2 (titrated to a daily dose of 2 mg/kg/day). Control litters were kept under normal air atmosphere and standard conditions. On P10, pups were euthanized by decapitation under 2% isoflurane anesthesia. Eyes were enucleated and fixed in 4% paraformaldehyde, then stored at 4° C. in phosphate-buffered saline (PBS) until further processing.
Retinal Flatmount and Immunohistochemistry. The fixed eyes were dissected, and the obtained retinas were incubated with antibodies and mounted onto slides as previously described in (Geranurimi et al. 2019). Briefly, the cornea and lens were removed from the eyes, and the retina gently removed from the underlying sclera-choroid-retinal pigmented epithelium (RPE) complex. Retinas were treated for 1h with blocking solution [1% bovine serum albumin (BSA), 1% normal goat serum, 0.1% Triton X-100 and 0.05% Tween-20 in PBS], and then incubated overnight with lectin and Iba-1 primary antibody, followed by Alexa-594-conjugated secondary antibody for 2 h. Retinas were then mounted onto microscope slides under coverslips with anti-fade mounting medium.
Microscopy. Retinal flatmounts were imaged using the Zeiss Axiolmager Z2 and the MosaiX feature of the AxioVision software as previously described (Geranurimi et al. 2019). Representative images after Iba-1 staining were taken using a laser scanning confocal microscope (Olympus IX81 with Fluoview FV1000 Scanhead) using the Fluoview Software at 30× magnification.
Quantification and Data Analysis. The FIJI software was used to quantify the area of vaso-obliteration in each retina, expressed as a percentage of the area of the whole retina. The number of Iba-1-positive cells was counted using the cell counter plug-in in the FIJI software, and the average of cell counts in 4 fields per retina was calculated. Data was analyzed using Prism 7 with one-way ANOVA and the Dunnett's test for multiple comparisons. Results were treated as significant when p was less than 0.05 and expressed as mean+SEM.

The subject of a further assay is timed-pregnant CD-1 mice. Put plainly: LPS-induced preterm birth model in mice. The conditions noted are these: 2 mg/kg/day subcutaneous, LPS 10 μg intraperitoneal on G16.5. It counts as in vivo, mouse. As for the experimental part: FIG. 6 is a graph showing the effects of peptides 1 and 2 on prevention of PTB. In brief, pregnant dams on day 16.5 of gestation (G16.5) were subcutaneously pretreated with peptides 1 and 2 (2 mg/kg/day subcutaneous injections) or vehicle, followed by LPS (10 μg intraperitoneal injection), and observed for delivery of pups. A dam was considered as delivering preterm if at least one pup was delivered before G18.5. n=4-5 dams per treatment group.
Timed-pregnant CD-1 mice at 16.5 days of gestation (G16.5) were anesthetized with 2% isoflurane and received an intraperitoneal injection of lipopolysaccharide (LPS, n=4 per group, a single dose of 10 ug) (Nadeau-Vallée et al., 2015; Kakinuma et al., 1997). A dosage of 2 mg/kg/day of peptides 1 and 2 or vehicle was respectively injected subcutaneously in the neck, every 12h until delivery. On G16.5, a dose of 1 mg/kg was injected 30 min before stimulation with LPS (to allow distribution of drugs to target tissues) and 1 mg/kg was injected 12h after stimulation (n=4 each treatment). Mice delivery was assessed every hour until term (G19-G19.5). A mouse was considered as delivering prematurely if the first pup was delivered earlier than G18.5. Data was analyzed using Prism 7 (GraphPad Software, San Diego, CA, USA) with one-way ANOVA and Dunnett's test for multiple comparisons. Outliers were detected using Grubb's test. Results were treated as significant when p was <0.05 and expressed as mean+SEM.
From the results of the in vitro screens, a subset of six (3R,4S)-β-substituted-Agl^3 peptides (e.g., 2c, 2d, 2f, 2l, 2n, 2q) were selected for examination in vivo in a CD-1 mouse model of preterm birth (PTB), and a Sprague Dawley rat model of oxygen-induced retinopathy (OIR). In the PTB model, timed-pregnant CD-1 dams were pre-treated with peptides 1 or 2, or PBS vehicle, and then injected with LPS on day 16.5 of gestation (G16.5). A bacterial cell wall component that contains PAMPs, LPS is known to reliably induce labor via pro-inflammatory pathways implicating IL-1 (Hirsch and Wang 2005). The CD-1 mice have a gestation of 19.2 days (Goupil et al. 2010). Dams that delivered at least one pup before G18.5 were considered to have given birth prematurely. In the absence of peptide, LPS alone induced premature labor in ˜80% of treated mice (FIG. 6). Peptide 1 and triazoles 2 l and 2q, all reduced the PTB rate to ˜20%.

The test system of assay [3] is IL-1β-induced phosphorylation of JNK. Put plainly: IL-1β-induced JNK phosphorylation, Western blot, RAW Blue cells. It counts as cell-based. The conditions noted are these: peptide 10^−6 M 30 min, then IL-1β 15 min. The protocol: (§3) FIGS. 5A-C are graphs showing the effects of peptides 1 and 2 on IL-1β-induced phosphorylation of p38 (FIG. 5A), JNK (FIG. 5B), and ROCK2 (FIG. 5C). Graphical representations of band density analysis of Western Blots are shown as fold activation compared to control. RAW Blue cells were pretreated with peptides 1 and 2 (10^−6 M), Kineret (1 mg/mL), or vehicle for 30 min and then stimulated with IL-1β for 15 min. Results shown are the average of 3 independent experiments: *p<0.05, ** p<0.01, ***p<0.001 compared to group treated only with IL-1β. Treatment groups that are not labeled with asterisks are statistically non-significant compared to group treated only with IL-1β.

Assay [4] has as its system IL-1β-induced phosphorylation of p38. Put plainly: IL-1β-induced p38 phosphorylation, Western blot, RAW Blue cells. It counts as cell-based. The conditions noted are these: peptide 10^−6 M 30 min, then IL-1β 15 min. The protocol:
as §3
Background: A western blot detects proteins with antibodies after separation by electrophoresis.

The subject of assay [5] is IL-1β-induced phosphorylation of ROCK2. Put plainly: IL-1β-induced ROCK2 phosphorylation, Western blot, RAW Blue cells. It is filed as cell-based. The conditions noted are these: peptide 10^−6 M 30 min, then IL-1β 15 min. As for the experimental part: as §3

As for “Kineret®: the recombinant IL-1 receptor antagonist, Kineret® (anakinra)”, in assay [1], the “effect on IL-1β-induced NF-κB signaling (secreted alkaline phosphatase)” value is on record as “blocked”.
As for “[(3R,4S)-4-(4′-(1,1-Dimethyl)aminomethyltriazolyl)Agl^3]-1 [2o]”, in the assay on IL-1β gene expression, the “IL-1β pro-inflammatory gene expression (qPCR)” value was “strong inhibitory effects”. In addition, the “COX-2 pro-inflammatory gene expression (qPCR)” value in assay [2] is “strong inhibitory effects”.
Consider “[(3R,4S)-4-(4′-Hydroxymethyltriazolyl)Agl^3]-1 [2q]”, for which, in the assay on Sprague Dawley rat pups, the “retinal microglial morphology/activation (Iba-1 staining)” value is “ramified and branched microglia”; the “extent of vaso-obliteration (percentage of total retinal area)” value (from here on “extent … (percentage of total retinal area)”) is around 20%. Also, the “IL-1β pro-inflammatory gene expression (qPCR)” value in the assay on IL-1β gene expression is “strong inhibitory effects”. The same substance came in with a PTB rate with timed-pregnant CD-1 mice (delivery before G18.5, LPS alone ˜80%) of around 20%. Further, in assay [2], the “COX-2 pro-inflammatory gene expression (qPCR)” value is “strong inhibitory effects”. The “IL-1β-induced activation (phosphorylation) of JNK” value in assay [3] is given as “inhibited”.
Turning to “[(3R,4S)-4-(4′-m-Aminophenyltriazolyl)Agl^3]-1 [2n]”, in the assay on Sprague Dawley rat pups, the “retinal microglial morphology/activation (Iba-1 staining)” value is “ramified and branched microglia”; the “extent … (percentage of total retinal area)” value is listed as around 20%. For the same substance, the “effects on PTB” value in the assay on timed-pregnant CD-1 mice is reported as “Neither N-oxyphthalimide 2f nor 4-m-aminophenyltriazole 2n exhibited effects on PTB”.
For “[(3R,4S)-4-(4′-p-Methylphenyltriazolyl)Agl^3]-1 [2m]”, the “IL-1β pro-inflammatory gene expression (qPCR)” value with IL-1β gene expression is reported as “strong inhibitory effects”. Further, the “COX-2 pro-inflammatory gene expression (qPCR)” value in assay [2] was “strong inhibitory effects”.
In the case of [(3R,4S)-4-(AcHN)Agl^3]-1 [2i], in the assay with IL-1β gene expression, the “IL-1β pro-inflammatory gene expression (qPCR)” value was “without effecting”. In assay [4], the “IL-1β-induced p38 phosphorylation” value is “inhibiting”. Further, the “COX-2 pro-inflammatory gene expression (qPCR)” value in assay [2] was “blocked expression”.
Regarding [(3R,4S)-4-(H2NO)Agl^3]-1 [2g], in the assay with IL-1β gene expression, the “IL-1β pro-inflammatory gene expression (qPCR)” value is given as “without effecting”. Moreover, the “COX-2 pro-inflammatory gene expression (qPCR)” value in assay [2] was “blocked expression”. Besides, the “IL-1β-induced ROCK2 phosphorylation” value in assay [5] is on record as “inhibitory activity”.
For the substance [(3R,4S)-4-(PhthO)Agl^3]-1 [2f], in the assay with Sprague Dawley rat pups, the “retinal microglial morphology/activation (Iba-1 staining)” value is “ramified and branched microglia”; the “extent … (percentage of total retinal area)” value is reported as around 20%. Besides, the “effects on PTB” value with timed-pregnant CD-1 mice is “Neither N-oxyphthalimide 2f nor 4-m-aminophenyltriazole 2n exhibited effects on PTB”.
Turning to [(3R, 4S)-4-(N3)Agl^3]-1 [2c], in the assay on Sprague Dawley rat pups, the “protective effect against vaso-obliteration” value is given as “no detectable protective effect” and the “retinal microglial morphology/activation (Iba-1 staining)” value is “active amoeboid state”.
Consider [(3S,4S)-4-(NCS)Agl^3]-1 [2d], for which, in the assay with Sprague Dawley rat pups, the “protective effect against vaso-obliteration” value is given as “tendencies to have a stronger protective effect than peptide 1”; the “retinal microglial morphology/activation (Iba-1 staining)” value was “ramified and branched microglia”; the “extent … (percentage of total retinal area)” value was around 20%. Moreover, the “IL-1β-induced p38 phosphorylation” value in assay [4] is “inhibiting”.
